Drawing on US20080200454A1, “CARBON-LINKED TETRAHYDRO-PYRAZOLO-PYRIDINE MODULATORS OF CATHEPSIN S” (priority 2007, published 2008), this text covers IC50 for 24 compounds.

Structures are written as SMILES. Where a name gives a salt, the structure may show the parent alone.

The target in one test is Recombinant human cathepsin S (CatS) (Homo sapiens, UniProt P25774). In words: Recombinant human cathepsin S (CatS) inhibition assay, fluorogenic substrate Z-Valine-Valine-Arginine-AMC.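 Further: Baculovirus-expressed CatS in pH 5.0 sodium acetate buffer with DTT and NaCl, fluorescence read each minute over 20 min, inhibition derived from rate slope.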
Recombinant human cathepsin S (CatS), sequence (P25774 115-331): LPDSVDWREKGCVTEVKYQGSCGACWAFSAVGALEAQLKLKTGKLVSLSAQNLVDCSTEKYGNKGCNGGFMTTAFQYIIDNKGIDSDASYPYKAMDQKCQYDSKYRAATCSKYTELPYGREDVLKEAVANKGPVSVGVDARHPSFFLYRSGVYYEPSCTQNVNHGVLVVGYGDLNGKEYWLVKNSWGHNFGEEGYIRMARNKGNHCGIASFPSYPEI
Conditions: not given
As usually defined, the IC50 is the concentration that inhibits the measured activity by half. In the case of `CS(=O)(=O)N1CCc2c(c(-c3ccc(Cl)c(C#Cc4ccc(CNS(=O)(=O)c5ccccc5)cc4)c3)nn2CCCN2CCOCC2)C1` [Example 71, N-(4-{2-Chloro-5-[5-methanesulfonyl-1-(3-morpholin-4-yl-propyl)-4,5,6,7-tetrahydro-1H-pyrazolo[4,3-c]pyridin-3-yl]-phenylethynyl}-benzyl)-benzenesulfonamide], the IC50 is 170 nM.
`CC(=O)NCc1ccc(C#Cc2cc(-c3nn(CCCN4CCOCC4)c4c3CN(S(C)(=O)=O)CC4)ccc2Cl)cc1` [Example 72, N-(4-{2-Chloro-5-[5-methanesulfonyl-1-(3-morpholin-4-yl-propyl)-4,5,6,7-tetrahydro-1H-pyrazolo[4,3-c]pyridin-3-yl]-phenylethynyl}-benzyl)-acetamide]: the 50% inhibitory concentration (IC50) amounted to 490 nM.
For `CS(=O)(=O)N1CCc2c(c(-c3ccc(Cl)c(C#Cc4ccc(CNC(=O)c5ccccc5)cc4)c3)nn2CCCN2CCOCC2)C1` [Example 73, N-(4-{2-Chloro-5-[5-methanesulfonyl-1-(3-morpholin-4-yl-propyl)-4,5,6,7-tetrahydro-1H-pyrazolo[4,3-c]pyridin-3-yl]-phenylethynyl}-benzyl)-benzamide], the concentration for half-maximal inhibition (IC50) worked out at 350 nM.
Turning to `CS(=O)(=O)N1CCc2c(c(-c3ccc(Cl)c(C#Cc4ccc(CNCc5ccccc5)cc4)c3)nn2CCCN2CCOCC2)C1` [Example 74, Benzyl-(4-{2-chloro-5-[5-methanesulfonyl-1-(3-morpholin-4-yl-propyl)-4,5,6,7-tetrahydro-1H-pyrazolo[4,3-c]pyridin-3-yl]-phenylethynyl}-benzyl)-amine], the half-maximal inhibitory concentration (IC50) is 430 nM.
As to `Cc1ccc(CNCc2ccc(C#Cc3cc(-c4nn(CCCN5CCOCC5)c5c4CN(S(C)(=O)=O)CC5)ccc3Cl)cc2)cc1` [Example 75, (4-{2-Chloro-5-[5-methanesulfonyl-1-(3-morpholin-4-yl-propyl)-4,5,6,7-tetrahydro-1H-pyrazolo[4,3-c]pyridin-3-yl]-phenylethynyl]-benzyl)-(4-methyl-benzyl)-amine], the IC50 amounted to 350 nM.
Still for that read-out and setting: to `CS(=O)(=O)N1CCc2c(c(-c3ccc(Cl)c(C#Cc4ccc(CNCc5ccc(Cl)cc5)cc4)c3)nn2CCCN2CCOCC2)C1` [Example 76, (4-Chloro-benzyl)-(4-{2-chloro-5-[5-methanesulfonyl-1-(3-morpholin-4-yl-propyl)-4,5,6,7-tetrahydro-1H-pyrazolo[4,3-c]pyridin-3-yl]-phenylethynyl}-benzyl)-amine] belongs 240 nM; to `CN(Cc1ccccc1)Cc1ccc(C#Cc2cc(-c3nn(CCCN4CCOCC4)c4c3CN(S(C)(=O)=O)CC4)ccc2Cl)cc1` [Example 77, Benzyl-(4-{2-chloro-5-[5-methanesulfonyl-1-(3-morpholin-4-yl-propyl)-4,5,6,7-tetrahydro-1H-pyrazolo[4,3-c]pyridin-3-yl]-phenylethynyl}-benzyl)-methyl-amine], 640 nM; to `CS(=O)(=O)NCCCc1cc(-c2nn(CCCN3CCOCC3)c3c2CN(S(C)(=O)=O)CC3)ccc1Cl` [Example 80, N-(3-{2-Chloro-5-[5-methanesulfonyl-1-(3-morpholin-4-yl-propyl)-4,5,6,7-tetrahydro-1H-pyrazolo[4,3-c]pyridin-3-yl]-phenyl}-propyl)-methanesulfonamide], 9930 nM.
With `CS(=O)(=O)N1CCc2c(c(-c3ccc(Cl)c(CCCNS(=O)(=O)Cc4ccccc4)c3)nn2CCCN2CCOCC2)C1` [Example 81, N-(3-{2-Chloro-5-[5-methanesulfonyl-1-(3-morpholin-4-yl-propyl)-4,5,6,7-tetrahydro-1H-pyrazolo[4,3-c]pyridin-3-yl]-phenyl}-propyl)-C-phenyl-methanesulfonamide], the IC50 was found to be 5470 nM.
As for `CS(=O)(=O)N1CCc2c(c(-c3ccc(Cl)c(CCCNS(=O)(=O)c4ccc(Cl)c(Cl)c4)c3)nn2CCCN2CCOCC2)C1` [Example 82, 3,4-Dichloro-N-(3-{2-chloro-5-[5-methanesulfonyl-1-(3-morpholin-4-yl-propyl)-4,5,6,7-tetrahydro-1H-pyrazolo[4,3-c]pyridin-3-yl]-phenyl}-propyl)-benzenesulfonamide], the half-maximal inhibitory concentration (IC50) is 6100 nM.
Still for that read-out and setting: the same measure for `CS(=O)(=O)N1CCc2c(c(-c3ccc(Cl)c(CCCNS(=O)(=O)c4ccc(Cl)cc4)c3)nn2CCCN2CCOCC2)C1` [Example 83, 4-Chloro-N-(3-{2-chloro-5-[5-methanesulfonyl-1-(3-morpholin-4-yl-propyl)-4,5,6,7-tetrahydro-1H-pyrazolo[4,3-c]pyridin-3-yl]-phenyl}-propyl)-benzenesulfonamide]: 7100 nM; for `Cc1ccc(S(=O)(=O)NCCCc2cc(-c3nn(CCCN4CCOCC4)c4c3CN(S(C)(=O)=O)CC4)ccc2Cl)cc1` [Example 84, N-(3-{2-Chloro-5-[5-methanesulfonyl-1-(3-morpholin-4-yl-propyl)-4,5,6,7-tetrahydro-1H-pyrazolo[4,3-c]pyridin-3-yl]-phenyl}-propyl)-4-methyl-benzenesulfonamide]: 8100 nM; for `COc1ccc(S(=O)(=O)NCCCc2cc(-c3nn(CCCN4CCOCC4)c4c3CN(S(C)(=O)=O)CC4)ccc2Cl)cc1` [Example 85, N-(3-{2-Chloro-5-[5-methanesulfonyl-1-(3-morpholin-4-yl-propyl)-4,5,6,7-tetrahydro-1H-pyrazolo[4,3-c]pyridin-3-yl]-phenyl}-propyl)-4-methoxy-benzenesulfonamide]: 8930 nM.
Take `CN(C)S(=O)(=O)NCCCc1cc(-c2nn(CCCN3CCOCC3)c3c2CN(S(C)(=O)=O)CC3)ccc1Cl` [Example 86]: the IC50 turned out to be 13000 nM.
For the compound `CC(=O)NCCCc1cc(-c2nn(CCCN3CCOCC3)c3c2CN(S(C)(=O)=O)CC3)ccc1Cl` [Example 87, N-(3-{2-Chloro-5-[5-methanesulfonyl-1-(3-morpholin-4-yl-propyl)-4,5,6,7-tetrahydro-1H-pyrazolo[4,3-c]pyridin-3-yl]-phenyl}-propyl)-acetamide], the half-inhibitory concentration (IC50) amounted to 11400 nM.
Take `CS(=O)(=O)N1CCc2c(c(-c3ccc(Cl)c(CCCNS(=O)(=O)c4ccccc4C(=O)O)c3)nn2CCCN2CCC(N3CCCC3=O)CC2)C1` [Example 88, 2-{3-[2-Chloro-5-(5-methanesulfonyl-1-{3-[4-(2-oxo-pyrrolidin-1-yl)-piperidin-1-yl]-propyl}-4,5,6,7-tetrahydro-1H-pyrazolo[4,3-c]pyridin-3-yl)-phenyl]-propylsulfamoyl}-benzoic acid, trifluoroacetic acid salt]: the concentration for half-maximal inhibition (IC50) came out at 520 nM.
As to `CS(=O)(=O)N1CCc2c(c(-c3ccc(Cl)c(CCCNS(=O)(=O)c4ccccc4[N+](=O)[O-])c3)nn2CCCN2CCC(N3CCCC3=O)CC2)C1` [Example 89, N-{3-[2-Chloro-5-(5-methanesulfonyl-1-{3-[4-(2-oxo-pyrrolidin-1-yl)-piperidin-1-yl]-propyl}-4,5,6,7-tetrahydro-1H-pyrazolo[4,3-c]pyridin-3-yl)-phenyl]-propyl}-2-nitro-benzenesulfonamide], the concentration for half-maximal inhibition (IC50) is 290 nM.
As to `CS(=O)(=O)N1CCc2c(c(-c3ccc(Cl)c(CCCNS(=O)(=O)c4cccc(Cl)c4)c3)nn2CCCN2CCC(N3CCCC3=O)CC2)C1` [Example 90, 3-Chloro-N-{3-[2-chloro-5-(5-methanesulfonyl-1-{3-[4-(2-oxo-pyrrolidin-1-yl)-piperidin-1-yl]-propyl}-4,5,6,7-tetrahydro-1H-pyrazolo[4,3-c]pyridin-3-yl)-phenyl]-propyl}-benzenesulfonamide], the concentration for half-maximal inhibition (IC50) was 420 nM.
`CS(=O)(=O)N1CCc2c(c(-c3ccc(Cl)c(CCCNS(=O)(=O)c4ccccc4)c3)nn2CCCN2CCC(N3CCCC3=O)CC2)C1` [Example 91, N-{3-[2-Chloro-5-(5-methanesulfonyl-1-{3-[4-(2-oxo-pyrrolidin-1-yl)-piperidin-1-yl]-propyl}-4,5,6,7-tetrahydro-1H-pyrazolo[4,3-c]pyridin-3-yl)-phenyl]-propyl}-benzenesulfonamide]: the IC50 came out at 940 nM.
With `Cc1ccc(S(=O)(=O)NCCCc2cc(-c3nn(CCCN4CCC(N5CCCC5=O)CC4)c4c3CN(S(C)(=O)=O)CC4)ccc2Cl)cc1` [Example 92, N-{3-[2-Chloro-5-(5-methanesulfonyl-1-{3-[4-(2-oxo-pyrrolidin-1-yl)-piperidin-1-yl]-propyl}-4,5,6,7-tetrahydro-1H-pyrazolo[4,3-c]pyridin-3-yl)-phenyl]-propyl}-4-methyl-benzenesulfonamide], the IC50 stood at 1040 nM.
For `COc1cccc(S(=O)(=O)NCCCc2cc(-c3nn(CCCN4CCC(N5CCCC5=O)CC4)c4c3CN(S(C)(=O)=O)CC4)ccc2Cl)c1` [Example 93, N-{3-[2-Chloro-5-(5-methanesulfonyl-1-{3-[4-(2-oxo-pyrrolidin-1-yl)-piperidin-1-yl]-propyl}-4,5,6,7-tetrahydro-1H-pyrazolo[4,3-c]pyridin-3-yl)-phenyl]-propyl}-3-methoxy-benzenesulfonamide], the IC50 worked out at 1050 nM.
With `Cc1ccccc1S(=O)(=O)NCCCc1cc(-c2nn(CCCN3CCC(N4CCCC4=O)CC3)c3c2CN(S(C)(=O)=O)CC3)ccc1Cl` [Example 94, N-{3-[2-Chloro-5-(5-methanesulfonyl-1-{3-[4-(2-oxo-pyrrolidin-1-yl)-piperidin-1-yl]-propyl}-4,5,6,7-tetrahydro-1H-pyrazolo[4,3-c]pyridin-3-yl)-phenyl]-propyl}-2-methyl-benzenesulfonamide], the half-inhibitory concentration (IC50) came to 1100 nM.

The test is the same for the next values; noted with them: CatS IC50.
As for `CS(=O)(=O)N1CCc2c(c(-c3ccc(Cl)c(C#Cc4ccc(CN5CCCC5)cc4)c3)nn2CCCN2CCOCC2)C1` [Example 78, 3-[4-Chloro-3-(4-pyrrolidin-1-ylmethyl-phenylethynyl)-phenyl]-5-methanesulfonyl-1-(3-morpholin-4-yl-propyl)-4,5,6,7-tetrahydro-1H-pyrazolo[4,3-c]pyridine], the IC50 was 1400 nM.
Same read-out and setting: the same measure for `CS(=O)(=O)N1CCc2c(c(-c3ccc(Cl)c(C#Cc4ccc(CN5CCCCC5)cc4)c3)nn2CCCN2CCOCC2)C1` [Example 79, 3-[4-Chloro-3-(4-piperidin-1-ylmethyl-phenylethynyl)-phenyl]-5-methanesulfonyl-1-(3-morpholin-4-yl-propyl)-4,5,6,7-tetrahydro-1H-pyrazolo[4,3-c]pyridine]: 1500 nM.
